Measurements taken from the supplement of paper PMC10307832.

Tests used:
Test in all cases: relative viability (nuclei count vs DMSO), 5 days (fraction); higher = more cells survive
[1] = compound: CC1(C)CCC(CN2CCN(c3ccc(C(=O)NS(=O)(=O)c4ccc(NCC5CCOCC5)c([N+](=O)[O-])c4)c(Oc4cnc5[nH]ccc5c4)c3)CC2)=C(c2ccc(Cl)cc2)C1 [Venetoclax]
How it was run: (§1)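 Lung cancer cell lines in 1536-well plates were exposed by pinning to five library-drug doses (not always all listed) √10 apart, following an overnight hold at 37 °C. MetaXpress counted Hoechst-stained nuclei from 4× images taken after 5 days without medium change. Viability is the median ratio of treated-well to vehicle-well nuclei across plates. Plates required control CV below 25% and at least one doubling.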

[2] = compound: Cn1cnc2c(F)c(Nc3ccc(Br)cc3Cl)c(C(=O)NOCCO)cc21 [Selumetinib]
How it was run: as §1

[3] = compound: Cn1cnc2c(F)c(Nc3ccc(Br)cc3Cl)c(C(=O)NOCCO)cc21 [Selumetinib] + COc1cc2c(Oc3ccc(NC(=O)C4(C(=O)Nc5ccc(F)cc5)CC4)cc3F)ccnc2cc1OCCCN1CCOCC1 [Foretinib] (partner 0.25 µM)
How it was run: (§2)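 A single step with final 0.05% Triton X-100, 1% formaldehyde and 1 ug/ml Hoechst fixed the cells and stained nuclei 5 days after treatment. Lung cancer cell lines in 1536-well plates had been treated by pin tool the day after seeding with one drug alone or a fixed anchor-drug dose plus five library-drug doses (not always all listed) in √10 steps, and nuclei were counted on 4× images. Relative viability is the ratio of nuclei in treated wells to nuclei in vehicle wells, taken as the median of duplicate plates.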

[4] = compound: Cn1cnc2c(F)c(Nc3ccc(Br)cc3Cl)c(C(=O)NOCCO)cc21 [Selumetinib] + CS(=O)(=O)N1CCN(Cc2cc3nc(-c4cccc5[nH]ncc45)nc(N4CCOCC4)c3s2)CC1 [Pictilisib] (partner 1 µM)
How it was run: as §2

Which relative viability ([1]; 0.01 µM) does the source give for UMC-11 here?
The relative viability was 0.958.

What about the relative viability ([1]; 0.03162 µM) of the same cell line?
Its relative viability is 1.

And the relative viability ([1]; 0.1 µM)?
Its relative viability is 0.901.

What about the relative viability ([1]; 0.3162 µM) of the same cell line?
The relative viability was 0.944.

And the relative viability ([1]; 1 µM)?
The relative viability was 0.927.

What about the relative viability ([2]; 0.02 µM) of the same cell line?
Its relative viability is 0.936.

And the relative viability ([2]; 0.06325 µM)?
The relative viability was 0.909.

And the relative viability ([2]; 0.2 µM)?
The relative viability was 1.01.

And the relative viability ([2]; 0.6325 µM)?
The relative viability was 1.04.

And the relative viability ([3]; first compound 0.02 µM)?
Its relative viability is 1.05.

And the relative viability ([3]; first compound 0.06325 µM)?
The relative viability was 1.11.

What about the relative viability ([3]; first compound 0.2 µM) of the same cell line?
The relative viability was 1.05.

And the relative viability ([3]; first compound 0.6325 µM)?
Its relative viability is 1.04.

What about the relative viability ([4]; first compound 0.02 µM) of the same cell line?
The relative viability was 0.827.

And the relative viability ([4]; first compound 0.06325 µM)?
The relative viability was 0.772.

And the relative viability ([4]; first compound 0.2 µM)?
The relative viability was 0.869.

What about the relative viability ([4]; first compound 0.6325 µM) of the same cell line?
Its relative viability is 0.922.
